Source: patent publication US20170094996A1, “PROCESS FOR REBAUDIOSIDE D” (EPC (BEIJING) NATURAL PRODUCTS CO., LTD., priority 2009, published 2017)

Columns and labels:
[1] = Sensorical analysis of 3 samples steviol-glycosides, trained panel of 6 test persons; type: in vivo, human; conditions: 200 ppm solutions in water, 100 ml, blinded
Experimental: Trained panel of 6 test persons.
Samples were prepared as 200 ppm solutions in water (same temperature).
Each test person received 3 equal glasses with 100 ml of prepared sample. The glasses were denoted with random 3-digit numbers.
The question asked was: “Can you taste a difference between the samples and if so please describe the difference in plain text”.
After the tasting period, the panel exchanged the individual opinions and came to following conclusion (the nature of sample was kept hidden until the conclusion was reached): […]

[2] = compared with stevioside; Phytochemistry 68, 2007, 1855-1863; cited from earlier work

C=C1C[C@@]23CC[C@H]4[C@@](C)(CCC[C@@]4(C)C(=O)O[C@@H]4O[C@H](CO)[C@@H](O)[C@H](O)[C@H]4O)[C@@H]2CC[C@]1(O[C@@H]1O[C@H](CO)[C@@H](O)[C@H](O[C@@H]2O[C@H](CO)[C@@H](O)[C@H](O)[C@H]2O)[C@H]1O[C@@H]1O[C@H](CO)[C@@H](O)[C@H](O)[C@H]1O)C3 [Rebaudioside A]
bitter after taste (panel conclusion) [1]: slight bitter after taste
sweetness compared with the other samples (panel conclusion) [1]: slightly less sweet than the 2 other samples
taste quality [2]: better than stevioside
